In patent US20060069132A1, “Azolecarboxamide herbicides” (priority 2004, published 2006):

Key:
Assay in all cases: Test C pre-/postemergence herbicide test
[1] = test system: yellow nutsedge; format: in vivo, Cyperus esculentus; details: for Nutsedge, Yellow plant response rating: Preemergence, 500 g ai/ha, scale 0 to 100, 0 no effect, 100 complete control
In short: (§1)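 Emerged plants at the 1- to 4-leaf stage (2–18 cm), or freshly planted seeds, received test chemicals in a non-phytotoxic solvent mixture with surfactant. Response was visually scored against controls after 12 to 14 days in the greenhouse, on a 0 (no effect) to 100 (complete control) scale.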

[2] = test system: kochia; format: in vivo, Kochia scoparia; details: for Kochia plant response rating: Preemergence, 500 g ai/ha, scale 0 to 100, 0 no effect, 100 complete control
In short: as §1

[3] = test system: large crabgrass; format: in vivo, Digitaria sanguinalis; details: for Crabgrass, Large plant response rating: Preemergence, 500 g ai/ha, scale 0 to 100, 0 no effect, 100 complete control
In short: as §1

[4] = test system: pigweed; format: in vivo, Amaranthus retroflexus; details: for Pigweed plant response rating: Preemergence, 500 g ai/ha, scale 0 to 100, 0 no effect, 100 complete control
In short: as §1

[5] = test system: common ragweed; format: in vivo, Ambrosia elatior; set-up: key to Plant response rating, Ragweed: 0 = no effect, 100 = complete control; details: for Ragweed plant response rating: Preemergence, 500 g ai/ha, scale 0 to 100, 0 no effect, 100 complete control
In short: as §1

[6] = test system: morningglory; format: in vivo, Ipomoea coccinea; set-up: key to Plant response rating, Morningglory: 0 = no effect, 100 = complete control; details: for Morningglory plant response rating: Preemergence, 500 g ai/ha, scale 0 to 100, 0 no effect, 100 complete control
In short: as §1

[7] = test system: soybean; format: in vivo, Glycine max; details: for Soybean plant response rating: Preemergence, 500 g ai/ha, scale 0 to 100, 0 no effect, 100 complete control
In short: as §1

[8] = test system: bermudagrass; format: in vivo, Cynodon dactylon
In short: as §1

[9] = test system: giant foxtail; format: in vivo, Setaria faberi; details: for Foxtail, Giant plant response rating: Preemergence, 500 g ai/ha, scale 0 to 100, 0 no effect, 100 complete control
In short: as §1

[10] = 125 g ai/ha, scale 0 (no effect) to 100 (complete control), visual, 12 to 14 days, preemergence
[11] = 250 g ai/ha, scale 0 to 100 (0 no effect, 100 complete control), visual, 12 to 14 days, preemergence
[12] = Preemergence, 500 g ai/ha, scale 0 to 100, 0 no effect, 100 complete control
[13] = 62 g ai/ha, preemergence, scale 0 to 100
[14] = 250 g ai/ha, scale 0-100, preemergence

SMILES: C=CCn1nc(C(C)(C)C)cc1C(=O)Nc1cccc(C(=O)NCC)c1 [Compound 56]
- Plant response rating (0 = no effect, 100 = complete control), Nutsedge, Yellow ([1]; 62 g ai/ha, preemergence): 0
- Plant response rating, Nutsedge, Yellow [1, 10]: 0
- Plant response rating, Nutsedge, Yellow [1, 11]: 0
- Nutsedge, Yellow plant response rating [1]: 20
- Plant response rating (0 = no effect, 100 = complete control), Kochia ([2]; 62 g ai/ha, preemergence): 75
- Plant response rating, Kochia [2, 10]: 90
- Plant response rating, Kochia [2, 11]: 95
- Kochia plant response rating [2]: 95
- Plant response rating (0 = no effect, 100 = complete control), Crabgrass, Large ([3]; 62 g ai/ha, preemergence): 95
- Plant response rating, Crabgrass, Large [3, 10]: 100
- Plant response rating, Crabgrass, Large [3, 11]: 100
- Crabgrass, Large plant response rating [3]: 100
- Plant response rating (0 = no effect, 100 = complete control), Pigweed ([4]; 62 g ai/ha, preemergence): 100
- Plant response rating, Pigweed [4, 10]: 100
- Plant response rating, Pigweed [4, 11]: 100
- Pigweed plant response rating [4]: 100
- Plant response rating (0 = no effect, 100 = complete control), Ragweed ([5]; 62 g ai/ha, preemergence): 60
- Plant response rating, Ragweed [5, 10]: 95
- Plant response rating, Ragweed [5, 11]: 95
- Ragweed plant response rating [5]: 95
- Plant response rating (0 = no effect, 100 = complete control), Morningglory ([6]; 62 g ai/ha, preemergence): 0
- Plant response rating, Morningglory [6, 10]: 0
- Plant response rating, Morningglory [6, 11]: 55
- Morningglory plant response rating [6]: 55
- Plant response rating (0 = no effect, 100 = complete control), Soybean ([7]; 62 g ai/ha, preemergence): 0
- Plant response rating, Soybean [7, 10]: 0
- Plant response rating, Soybean [7, 11]: 10
- Soybean plant response rating [7]: 15
- Plant response rating (0 = no effect, 100 = complete control), Bermudagrass ([8]; 62 g ai/ha, preemergence): 85
- Plant response rating, Bermudagrass [8, 10]: 90
- Plant response rating, Bermudagrass [8, 11]: 95
- Bermudagrass plant response rating [8, 12]: 95
- Plant response rating (0 = no effect, 100 = complete control), Foxtail, Giant ([9]; 62 g ai/ha, preemergence): 45
- Plant response rating, Foxtail, Giant [9, 10]: 85
- Plant response rating, Foxtail, Giant [9, 11]: 100
- Foxtail, Giant plant response rating [9]: 100

SMILES: CCn1nc(C(C)(C)C)cc1C(=O)Nc1cc(C(=O)N(C)C)ccn1 [Compound 156, 2-[[[3-(1,1-dimethylethyl)-1-ethyl-1H-pyrazol-5-yl]carbonyl]amino]-N,N-dimethyl-4-pyridinecarboxamide]
- pest or weed control at 62 g/ha ([1]; Cyperus, pre-emergence, 62 g ai/ha, preemergence, scale 0 to 100, read-out: Plant response rating, Nutsedge, Yellow): 35%
- pest or weed control at 125 g/ha ([1]; Cyperus, pre-emergence, 125 g ai/ha, scale 0 (no effect) to 100 (complete control), visual, 12 to 14 days, read-out: Plant response rating, Nutsedge, Yellow): 60%
- Nutsedge, Yellow plant response rating [1]: 85
- pest or weed control at 62 g/ha ([2]; Bassia scoparia, pre-emergence, 62 g ai/ha, preemergence, scale 0 to 100, read-out: Plant response rating, Kochia): 95%
- pest or weed control at 125 g/ha ([2]; Bassia scoparia, pre-emergence, 125 g ai/ha, scale 0 (no effect) to 100 (complete control), visual, 12 to 14 days, read-out: Plant response rating, Kochia): 95%
- Kochia plant response rating [2]: 100
- pest or weed control at 62 g/ha ([3]; Digitaria sanguinalis, pre-emergence, 312 h, 62 g ai/ha, preemergence, scale 0 to 100, read-out: Plant response rating, Crabgrass, Large): 60%
- pest or weed control at 125 g/ha ([3]; Digitaria sanguinalis, pre-emergence, 312 h, 125 g ai/ha, scale 0 (no effect) to 100 (complete control), visual, 12 to 14 days, read-out: Plant response rating, Crabgrass, Large): 85%
- pest or weed control at 250 g/ha ([3]; Digitaria sanguinalis, pre-emergence, 312 h, 250 g ai/ha, scale 0 to 100 (0 no effect, 100 complete control), visual, 12 to 14 days, read-out: Plant response rating, Crabgrass, Large): 90%
- Crabgrass, Large plant response rating [3]: 100
- pest or weed control at 62 g/ha ([4]; Amaranthus retroflexus, pre-emergence, 62 g ai/ha, preemergence, scale 0 to 100, read-out: Plant response rating, Pigweed): 95%
- pest or weed control at 125 g/ha ([4]; Amaranthus retroflexus, pre-emergence, 125 g ai/ha, scale 0 (no effect) to 100 (complete control), visual, 12 to 14 days, read-out: Plant response rating, Pigweed): 98%
- Pigweed plant response rating [4]: 100
- pest or weed control at 62 g/ha ([5]; Ambrosia artemisiifolia, pre-emergence, 62 g ai/ha, preemergence, scale 0 to 100, read-out: Plant response rating, Ragweed): 90%
- pest or weed control at 125 g/ha ([5]; Ambrosia artemisiifolia, pre-emergence, 125 g ai/ha, scale 0 (no effect) to 100 (complete control), visual, 12 to 14 days, read-out: Plant response rating, Ragweed): 100%
- Ragweed plant response rating [5]: 100
- pest or weed control at 62 g/ha ([6]; Ipomoea, pre-emergence, 62 g ai/ha, preemergence, scale 0 to 100, read-out: Plant response rating, Morningglory): 8%
- pest or weed control at 125 g/ha ([6]; Ipomoea, pre-emergence, 125 g ai/ha, scale 0 (no effect) to 100 (complete control), visual, 12 to 14 days, read-out: Plant response rating, Morningglory): 60%
- Morningglory plant response rating [6]: 100
- plant injury at 62 g/ha ([7]; Glycine max, pre-emergence, 62 g ai/ha, preemergence, scale 0 to 100, read-out: Plant response rating, Soybean): 33%
- plant injury at 125 g/ha ([7]; Glycine max, pre-emergence, 125 g ai/ha, scale 0 (no effect) to 100 (complete control), visual, 12 to 14 days, read-out: Plant response rating, Soybean): 50%
- Soybean plant response rating [7]: 100
- pest or weed control at 16 g/ha ([8]; Cynodon dactylon, pre-emergence, 312 h, 16 g ai/ha, scale 0 to 100, 0 no effect, 100 complete control, last section of Table C (species set of preemergence test), read-out: Plant response rating, Bermudagrass): 0%
- pest or weed control at 31 g/ha ([8]; Cynodon dactylon, pre-emergence, 312 h, 31 g ai/ha, scale 0 to 100, 0 no effect, 100 complete control, last section of Table C (species set of preemergence test), read-out: Plant response rating, Bermudagrass): 60%
- pest or weed control at 62 g/ha ([8]; Cynodon dactylon, pre-emergence, 312 h, 62 g ai/ha, preemergence, scale 0 to 100, 0 no effect, 100 complete control, read-out: Plant response rating, Bermudagrass): 88%
- pest or weed control at 125 g/ha ([8]; Cynodon dactylon, pre-emergence, 312 h, 125 g ai/ha, scale 0 (no effect) to 100 (complete control), visual, 12 to 14 days, read-out: Plant response rating, Bermudagrass): 93%
- pest or weed control at 250 g/ha ([8]; Cynodon dactylon, pre-emergence, 312 h, 250 g ai/ha, scale 0 to 100 (0 no effect, 100 complete control), visual, 12 to 14 days, read-out: Plant response rating, Bermudagrass): 95%
- pest or weed control at 500 g/ha ([8]; Cynodon dactylon, pre-emergence, 312 h, Preemergence, 500 g ai/ha, scale 0 to 100, 0 no effect, 100 complete control, read-out: Bermudagrass plant response rating): 95%
- Foxtail, Giant plant response rating [9]: 95
- pest or weed control at 62 g/ha ([9]; Setaria faberi, pre-emergence, 312 h, 62 g ai/ha, preemergence, scale 0 to 100, read-out: Plant response rating, Foxtail, Giant): 75%
- pest or weed control at 125 g/ha ([9]; Setaria faberi, pre-emergence, 312 h, 125 g ai/ha, scale 0 (no effect) to 100 (complete control), visual, 12 to 14 days, read-out: Plant response rating, Foxtail, Giant): 83%
- pest or weed control at 250 g/ha ([9]; Setaria faberi, pre-emergence, 312 h, 250 g ai/ha, scale 0 to 100 (0 no effect, 100 complete control), visual, 12 to 14 days, read-out: Plant response rating, Foxtail, Giant): 85%

SMILES: CCNC(=O)c1ccc(F)c(NC(=O)c2cn(C(C)(C)C)nc2CC)c1 [Compound 193]
- Plant response rating, Nutsedge, Yellow [1, 13]: 0
- Plant response rating, Nutsedge, Yellow [1, 10]: 0
- Plant response rating, Nutsedge, Yellow [1, 14]: 10
- Nutsedge, Yellow plant response rating [1]: 60
- Plant response rating, Kochia [2, 13]: 85
- Plant response rating, Kochia [2, 10]: 85
- Plant response rating, Kochia [2, 14]: 100
- Kochia plant response rating [2]: 100
- Plant response rating, Crabgrass, Large [3, 13]: 40
- Plant response rating, Crabgrass, Large [3, 10]: 85
- Plant response rating, Crabgrass, Large [3, 14]: 85
- Crabgrass, Large plant response rating [3]: 100
- Plant response rating, Pigweed [4, 13]: 100
- Plant response rating, Pigweed [4, 10]: 100
- Plant response rating, Pigweed [4, 14]: 100
- Pigweed plant response rating [4]: 100
- Plant response rating, Ragweed [5, 13]: 0
- Plant response rating, Ragweed [5, 10]: 100
- Plant response rating, Ragweed [5, 14]: 100
- Ragweed plant response rating [5]: 100
- Plant response rating, Morningglory [6, 13]: 20
- Plant response rating, Morningglory [6, 10]: 20
- Plant response rating, Morningglory [6, 14]: 100
- Morningglory plant response rating [6]: 100
- Plant response rating, Soybean [7, 13]: 30
- Plant response rating, Soybean [7, 10]: 30
- Plant response rating, Soybean [7, 14]: 50
- Soybean plant response rating [7]: 100
- Plant response rating, Bermudagrass ([8]; 62 g ai/ha, preemergence, scale 0 to 100, 0 no effect, 100 complete control): 60
- Plant response rating, Bermudagrass [8, 10]: 80
- Plant response rating, Bermudagrass [8, 14]: 85
- Bermudagrass plant response rating [8, 12]: 100
- Plant response rating, Foxtail, Giant [9, 13]: 40
- Plant response rating, Foxtail, Giant [9, 10]: 50
- Plant response rating, Foxtail, Giant [9, 14]: 80
- Foxtail, Giant plant response rating [9]: 100
